Laboratory results as given in PMC9127750, “Structure-based design of CDC42 effector interaction inhibitors for the treatment of cancer” (Cell reports, 2022).
Where “and” joins values, the source holds several entries; their conditions need not be identical. Equal entries are not always repeated.

Test system: WM3248 melanoma cells, 486 antibodies
Experiment: Reverse phase protein arrays (RPPA)
Type: cell-based, Human
Details: 5 uM
Text: Pellets were snap frozen in liquid nitrogen and shipped to MD Anderson Cancer Center core RPPA facility for RPPA analysis (Table S5). Three biological replicates for each sample were generated.
Nomenclatures on the RPPA heatmaps: name_of_antibody.species_of_antibody.status_of_antibody. V - antibody validated; C - validation of antibody in progress; Q - antibody nonspecific; E – under evaluation; antibodies raised in M - mouse, G - goat, R - rabbit, or T - rat.

CN(C)c1cccc(Nc2cc(-c3ccccc3)nc(C3CCNCC3)n2)c1 [ARN22089, N1,N1-dimethyl-N3-(6-phenyl-2-(piperidin-4-yl)pyrimidin-4-yl)benzene-1,3-diamine]
DJ1.R.V RPPA level (replicates): 1.007 and 1.125
DM.Histone.H3.R.V RPPA level (replicates): 0.950 and 1.152 and 1.117
DM.K9.Histone.H3.M.V RPPA level (replicates): 1.035 and 0.996
DNA.Ligase.IV.R.C RPPA level (replicates): 1.015 and 1.171 and 1.125
DNA_POLG.R.V RPPA level (replicates): 1.082 and 0.866 and 0.834
c.Jun_pS73.R.V RPPA level (replicates): 0.903 and 1.005
c.Kit.R.V RPPA level (replicates): 1.119 and 0.884 and 0.682
c.Met_pY1234_Y1235.R.V RPPA level (replicates): 0.935 and 1.110 and 1.140
c.Myc.R.C RPPA level (replicates): 1.016 and 0.996 and 1.017
cGAS.R.V RPPA level (replicates): 1.013 and 0.955
cdc2_pY15.R.C RPPA level (replicates): 0.982 and 1.425 and 1.193
cdc25C.R.V RPPA level (replicates): 0.985 and 0.925 and 0.943
RPPA MYH11.R.C (single replicates): 1.049 and 0.899 and 0.794
RPPA Myosin.IIa.R.C (single replicates): 0.881 and 0.604
RPPA Myosin.IIa_pS1943.R.V (single replicates): 1.019 and 0.869 and 0.642
RPPA Myt1.R.C (single replicates): 0.900
RPPA N.Cadherin.R.V (single replicates): 1.025 and 0.927 and 1.105
RPPA N.Ras.M.V (single replicates): 1.017 and 0.997
RPPA NAPSIN.A.R.C (single replicates): 0.989 and 1.114 and 1.136
RPPA NDRG1_pT346.R.V (single replicates): 0.757 and 1.000 and 1.113
RPPA NDUFB4.R.V (single replicates): 1.030 and 0.897
RPPA NRF2.R.C (single replicates): 0.980 and 1.023 and 1.172
RPPA Notch1.R.V (single replicates): 0.979 and 0.930
RPPA Notch1.cleaved.R.V (single replicates): 0.872 and 1.026
RPPA Notch3.R.C (single replicates): 0.916 and 1.149
RPPA Oct.4.R.C (single replicates): 1.033 and 1.165 and 1.085
RPPA P.Cadherin.R.C (single replicates): 0.913 and 1.419 and 0.819
RPPA PAI.1.M.V (single replicates): 0.893 and 0.953 and 1.083
RPPA PAICS.R.C (single replicates): 1.002 and 0.988 and 0.707
RPPA PAK1.R.V (single replicates): 1.101
RPPA PAK4.R.V (single replicates): 0.901 and 0.983
RPPA PAK_pS474_S602_S560.R.V (single replicates): 1.077 and 0.883 and 0.855
RPPA PAK_pT423_T402.R.C (single replicates): 0.941 and 1.054 and 0.768
RPPA PAR.R.C (single replicates): 1.057 and 2.014 and 0.910
RPPA PARG.R.C (single replicates): 0.916 and 0.961 and 1.160
RPPA PARP.R.V (single replicates): 0.918 and 1.359 and 0.791
RPPA PAX6.R.V (single replicates): 0.958 and 1.096
RPPA PAX8.R.C (single replicates): 1.084 and 0.915 and 0.888
RPPA PCNA.M.C (single replicates): 0.983 and 0.768
RPPA PD.1.R.V (single replicates): 1.028 and 0.932 and 1.016
RPPA PD.L1.R.C (single replicates): 0.986 and 1.136
RPPA PDH.M.V (single replicates): 1.030 and 0.955 and 1.162
RPPA PDHA1.R.V (single replicates): 0.999 and 1.134 and 1.104
RPPA PDHK1.R.C (single replicates): 0.895 and 1.143 and 1.132
RPPA PDK1.R.V (single replicates): 0.979 and 1.236 and 0.914
RPPA PDK1_pS241.R.V (single replicates): 1.012 and 1.286 and 1.116
RPPA PEA.15.R.V (single replicates): 0.973 and 1.022 and 0.716
RPPA PEA.15_pS116.R.V (single replicates): 1.025 and 1.082
RPPA PERK.R.V (single replicates): 0.799 and 0.886
RPPA PGM1.R.V (single replicates): 0.922
RPPA PHGDH.R.C (single replicates): 1.026 and 1.054 and 1.162
RPPA PHLPP.R.V (single replicates): 1.309 and 0.725 and 0.733
RPPA PI3K.p85.R.C (single replicates): 0.979
RPPA PI3K.p110.a.R.C (single replicates): 0.889 and 1.115 and 1.166
RPPA PI3K.p110.b.M.C (single replicates): 1.076 and 0.970 and 0.893
RPPA PKA.a.R.V (single replicates): 1.082 and 0.998 and 0.958
RPPA PKC.a.b.II_pT638_T641.R.V (single replicates): 0.773 and 0.933
RPPA PKC.b.II_pS660.R.V (single replicates): 0.932 and 1.415 and 1.139
RPPA PKCa.R.V (single replicates): 0.879 and 2.309 and 1.199
RPPA PKM2.R.C (single replicates): 0.777
RPPA PLC.gamma1.R.V (single replicates): 1.266 and 0.848 and 0.796
RPPA PLC.gamma1_pS1248.R.V (single replicates): 1.131 and 1.203 and 0.848
RPPA PLC.gamma2_pY759.R.V (single replicates): 0.953
RPPA PLK1.R.C (single replicates): 0.988 and 0.536 and 1.237
RPPA PMS2.R.V (single replicates): 1.054 and 0.898 and 0.867
RPPA PR.R.V (single replicates): 1.016 and 0.968 and 1.112
RPPA PRAS40.M.C (single replicates): 1.006 and 0.977 and 0.990
RPPA PRAS40_pT246.R.V (single replicates): 0.957 and 1.288 and 0.838
RPPA PRC1_pT481.R.C (single replicates): 0.841 and 0.955
RPPA PREX1.R.V (single replicates): 0.972 and 0.995 and 1.201
RPPA PTEN.R.V (single replicates): 0.880 and 1.147
RPPA PTPN12.R.V (single replicates): 1.009 and 1.217 and 1.054
RPPA PYGB.R.V (single replicates): 0.990 and 0.966 and 0.675
RPPA PYGM.M.C (single replicates): 1.013 and 0.953 and 0.526
RPPA Patched.R.C (single replicates): 0.925 and 1.120 and 1.169
RPPA Paxillin.R.C (single replicates): 0.754 and 1.008 and 1.170
RPPA Pdcd4.R.C (single replicates): 0.973 and 1.288 and 1.207
RPPA Porin.M.V (single replicates): 1.021 and 0.963 and 0.824
RPPA Puma.R.C (single replicates): 1.003 and 0.771
RPPA Pyk2_pY402.R.C (single replicates): 0.977 and 1.146 and 1.149
RPPA RBM15.R.V (single replicates): 0.950 and 1.004 and 0.982
